Measured values as given in patent US20240390340A1 (INCYTE CORPORATION, priority 2023, published 2024).
pIC50: −log10 of the molar value. Where two headings read alike, the source gives them in different places.

Columns and labels:
[1] = target: KRAS G12D (Homo sapiens, UniProt P01116, G12D); assay: GDP-GTP exchange assay (bodipy-GDP/GppNHp, SOS1), KRAS G12D; assay type: biochemical
Description: (§1) The inhibitor potency of the exemplified compounds was determined in a fluorescence based guanine nucleotide exchange assay, which measures the exchange of bodipy-GDP (fluorescently labeled GOP) for GppNHp (Non-hydrolyzable GTP analog) to generate the active state of KRAS in the presence of SOS1 (guanine nucleotide exchange factor). Inhibitors were serially diluted in DMSO and a volume of 0.1 μL was transferred to the wells of a black low volume 384-well plate. 5 μL/well volume of bodipy-loaded KRAS G12D diluted to 2.5 nM in assay buffer (25 mM Hepes pH 7.5, 50 mM NaCl, 10 mM MgCl2 and 0.01% Brij-35) was added to the plate and pre-incubated with inhibitor for 4 h at r.t. Appropriate controls (enzyme with no inhibitor or with a G12D inhibitor) were included on the plate. The exchange was initiated by the addition of a 5 μL/well volume containing 1 mM GppNHp and 300 nM SOS1 in assay buffer. The 10 μL/well reaction concentration of the bodipy-loaded KRAS G12D, GppNHp, and SOS1 were 2.5 nM, 500 μM, and 150 nM, respectively. The reaction plates were incubated at r.t. for 2 h, a time estimated for complete GDP-GTP exchange in the absence of inhibitor. For the KRAS G12V mutant, similar guanine nucleotide exchange assays were used with 2.5 nM as final concentration for the bodipy loaded KRAS proteins and 3 h incubation after adding GppNHp-SOS1 mixture. A cyclic peptide described to selectively bind G12D mutant (Sakamoto et al., BBRC 484.3 (2017), 605-611) or internal compounds with confirmed binding were used as positive controls in the assay plates. Fluorescence intensities were measured on a PheraStar plate reader instrument (BMG Labtech) with excitation at 485 nm and emission at 520 nm.
(§2) Either GraphPad prism or Genedata Screener SmartFit was used to analyze the data. The IC50 values were derived by fitting the data to a four parameter logistic equation producing a sigmoidal dose-response curve with a variable Hill coefficient.
(§3) The symbol “†” indicates IC50≤100 nM, “††” indicates IC50>100 nM but ≤1 μM; and “†††” indicates IC50 is >1 μM but ≤5 μM, “††††” indicates IC50 is >5 μM but ≤10 μM. “NA” indicates IC50 not available.

[2] = target: KRAS G12V (Homo sapiens, UniProt P01116, G12V); assay: GDP-GTP exchange assay (bodipy-GDP/GppNHp, SOS1), KRAS G12V; assay type: biochemical
Description: as §1, §2, §3

[3] = bodipy-loaded KRAS G12D 2.5 nM, 4 h pre-incubation, value for the most potent isomer quoted for certain compounds, read-out: G12D (KRAS G12D exchange assay IC50)
[4] = KRAS G12V mutant, value for the most potent isomer quoted for certain compounds, read-out: G12V (KRAS G12V exchange assay IC50)

KRAS G12D, sequence (P01116 1-188 isoform P01116-2 G12D): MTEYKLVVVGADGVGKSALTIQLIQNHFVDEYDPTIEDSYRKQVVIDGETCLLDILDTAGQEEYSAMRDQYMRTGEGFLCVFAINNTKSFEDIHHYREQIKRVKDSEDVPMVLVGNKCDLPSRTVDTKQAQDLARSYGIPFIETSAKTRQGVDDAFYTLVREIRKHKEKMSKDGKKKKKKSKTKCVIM
KRAS G12V, sequence (P01116 1-188 isoform P01116-2 G12V): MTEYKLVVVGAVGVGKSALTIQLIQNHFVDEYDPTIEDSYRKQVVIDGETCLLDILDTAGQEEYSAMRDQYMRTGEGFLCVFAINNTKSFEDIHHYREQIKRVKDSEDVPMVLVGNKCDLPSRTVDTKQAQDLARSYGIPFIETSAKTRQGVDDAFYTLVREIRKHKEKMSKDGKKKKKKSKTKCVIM

SMILES	pIC50 [1, 3]	pIC50 [2, 4]	pIC50 ([1]; Table H, column G12D, for compounds isolated as several atropisomers/diastereoisomers the value for the most potent isomer is quoted, read-out: KRAS G12D exchange assay IC50)	pIC50 ([2]; Table H, column G12V, for compounds isolated as several atropisomers/diastereoisomers the value for the most potent isomer is quoted, read-out: KRAS G12V exchange assay IC50)
Cc1nc2c(F)c(-c3cccc(Cl)c3Cl)c(CCC#N)cc2c2c1cc([C@H]1C[C@H](OC[C@@H]3CCCC[C@H]3C)CN1C(=O)C1CC1)n2[C@H]1[C@H]2CN[C@@H]1C2 [Example 286]	5.30 to 6.00	6.00 to 7.00	–	–
Cc1nc2c(F)c(-c3cccc(Cl)c3Cl)c(CCC#N)cc2c2c1cc([C@H]1C[C@H](n3cc(C4(C)CCCCC4)nn3)CN1C(=O)C1CC1)n2[C@H]1[C@H]2CN[C@@H]1C2 [Example 66, 3-(1-((1R,4R,5S)-2-Azabicyclo[2.1.1]hexan-5-yl)-2-((2R,4S)-1-(cyclopropanecarbonyl)-4-(4-(1-methylcyclohexyl)-1H-1,2,3-triazol-1-yl)pyrrolidin-2-yl)-7-(2,3-dichlorophenyl)-6-fluoro-4-methyl-1H-pyrrolo[3,2-c]quinolin-8-yl)propanenitrile]	–	–	≥ 7.00	≥ 7.00
Cc1nc2c(F)c(-c3cccc(Cl)c3Cl)c(CCC#N)cc2c2c1cc([C@H]1C[C@H](OCc3c(F)cccc3F)CN1C(=O)N(C)c1ccccc1)n2[C@H]1[C@H]2CN[C@@H]1C2 [Example 197]	6.00 to 7.00	≥ 7.00	–	–
Cc1nc2c(F)c(-c3cccc(Cl)c3Cl)c(CCC#N)cc2c2c1cc([C@H]1C[C@H](OCc3nccs3)C(C)(C)N1C(=O)C1CC1)n2[C@H]1[C@H]2CN[C@@H]1C2 [Example 405]	≥ 7.00	≥ 7.00	–	–
Cc1nc2c(F)c(-c3cccc(Cl)c3Cl)c(CCC#N)cc2c2c1cc([C@H]1C[C@H](n3cc(C4(CF)CC4)nn3)CN1C(=O)C1CC1)n2[C@H]1[C@H]2CN[C@@H]1C2 [Example 381]	≥ 7.00	≥ 7.00	–	–
Cc1cnn([C@H]2C[C@H](c3cc4c(C)nc5c(F)c(-c6cccc(Cl)c6Cl)c(CCC#N)cc5c4n3[C@H]3[C@H]4CN[C@@H]3C4)N(C(=O)C3CC3)C2)n1 [Example 344]	≥ 7.00	≥ 7.00	–	–

Further lines, results first:

pIC50 [1, 3]	pIC50 [2, 4]	pIC50 ([1]; Table H, column G12D, for compounds isolated as several atropisomers/diastereoisomers the value for the most potent isomer is quoted, read-out: KRAS G12D exchange assay IC50)	pIC50 ([2]; Table H, column G12V, for compounds isolated as several atropisomers/diastereoisomers the value for the most potent isomer is quoted, read-out: KRAS G12V exchange assay IC50)	SMILES
≥ 7.00	≥ 7.00	–	–	Cc1nc2c(F)c(-c3cccc(Cl)c3Cl)c(CCC#N)cc2c2c1cc([C@H]1C[C@H](OCc3cccnc3C(F)(F)F)CN1C(=O)C1CC1)n2[C@H]1[C@H]2CN[C@@H]1C2 [Example 268]
≥ 7.00	≥ 7.00	–	–	Cc1nc2c(F)c(-c3cccc(Cl)c3Cl)c(CCC#N)cc2c2c1cc([C@H]1C[C@H](OCc3ccccc3)CN1C(=O)C1(C)CC1)n2[C@H]1[C@H]2CN[C@@H]1C2 [Example 127]
≥ 7.00	≥ 7.00	–	–	Cc1nc(CO[C@H]2C[C@H](c3cc4c(C)nc5c(F)c(-c6cccc(Cl)c6Cl)c(CCC#N)cc5c4n3[C@H]3[C@H]4CN[C@@H]3C4)N(C(=O)C3CC3)C2)sc1C [Example 358]
≥ 7.00	≥ 7.00	–	–	Cc1cc(C)cc(O[C@H]2C[C@H](c3cc4c(C)nc5c(F)c(-c6cccc(Cl)c6Cl)c(CCC#N)cc5c4n3[C@H]3[C@H]4CN[C@@H]3C4)N(C(=O)C3CC3)C2)c1 [Example 166]
≥ 7.00	≥ 7.00	–	–	COC(=O)c1ncn([C@H]2C[C@H](c3cc4c(C)nc5c(F)c(-c6cccc(Cl)c6Cl)c(CCC#N)cc5c4n3[C@H]3[C@H]4CN[C@@H]3C4)N(C(=O)C3CC3)C2)n1 [Example 348]
≥ 7.00	≥ 7.00	–	–	Cc1nc(CO[C@H]2C[C@H](c3cc4c(C)nc5c(F)c(-c6cccc(Cl)c6Cl)c(CCC#N)cc5c4n3[C@H]3[C@H]4CN[C@@H]3C4)N(C(=O)C3(C)CC3)C2)cs1 [Example 128]
≥ 7.00	≥ 7.00	–	–	Cc1nc2c(F)c(-c3cccc(Cl)c3Cl)c(CCC#N)cc2c2c1cc([C@H]1C[C@H](OCc3ccccc3C#N)CN1C(=O)C1CC1)n2[C@H]1[C@H]2CN[C@@H]1C2 [Example 98]
≥ 7.00	≥ 7.00	–	–	Cc1nc2c(F)c(-c3cccc(Cl)c3Cl)c(CCC#N)cc2c2c1cc([C@H]1C[C@H](Oc3ccnc(N4CC(C(F)F)C4)c3)CN1C(=O)C1CC1)n2[C@H]1[C@H]2CN[C@@H]1C2 [Example 370]
